Results reported in paper PMC8490401, “Chemical proteomic profiling reveals protein interactors of the alarmones diadenosine triphosphate and tetraphosphate” (Nature Communications, 2021).

Assays:
PGK1 = molecular target: T1, PGK1 (Homo sapiens, UniProt P00558); test: fluorescence polarization, direct titration of purified protein; type: binding
T1 sequence (P00558 2-417): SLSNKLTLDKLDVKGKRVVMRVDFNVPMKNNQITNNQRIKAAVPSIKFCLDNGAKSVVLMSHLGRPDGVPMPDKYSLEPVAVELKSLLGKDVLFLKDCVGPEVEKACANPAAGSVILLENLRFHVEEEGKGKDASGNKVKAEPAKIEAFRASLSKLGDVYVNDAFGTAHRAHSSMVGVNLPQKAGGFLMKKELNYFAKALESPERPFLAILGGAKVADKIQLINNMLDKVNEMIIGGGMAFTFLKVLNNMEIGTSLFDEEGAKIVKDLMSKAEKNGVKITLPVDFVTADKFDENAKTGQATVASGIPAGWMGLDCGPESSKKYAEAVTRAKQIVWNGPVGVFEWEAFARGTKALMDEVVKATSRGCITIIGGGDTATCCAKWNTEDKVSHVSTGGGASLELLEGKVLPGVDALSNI

LDHA = LDHA (Homo sapiens, UniProt P00338); test: as above; type: binding
[1] = molecular target: T2, decapping scavenger protein (DcpS) (Homo sapiens, UniProt Q96C86); test: HPLC assay: Ap3A hydrolysed by purified DcpS and slows m7Gp3G cleavage; type: biochemical
T2 construct: His-tagged DcpS
T2 sequence (Q96C86 2-337): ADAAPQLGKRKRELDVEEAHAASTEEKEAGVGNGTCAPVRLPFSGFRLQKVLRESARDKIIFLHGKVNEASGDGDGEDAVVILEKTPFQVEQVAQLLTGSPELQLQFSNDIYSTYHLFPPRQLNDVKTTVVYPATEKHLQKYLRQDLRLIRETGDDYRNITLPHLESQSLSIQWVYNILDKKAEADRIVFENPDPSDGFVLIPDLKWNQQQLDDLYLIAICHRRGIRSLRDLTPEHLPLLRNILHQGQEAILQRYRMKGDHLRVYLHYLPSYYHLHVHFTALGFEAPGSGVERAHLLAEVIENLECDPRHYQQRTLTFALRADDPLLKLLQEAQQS

[2] = molecular target: T2, decapping scavenger protein (DcpS); test: HPLC cleavage assay with purified DcpS; type: biochemical
[3] = molecular target: T2, decapping scavenger protein (DcpS); test: HPLC assay: Ap4A hydrolysed by purified DcpS and slows m7Gp3G cleavage; type: biochemical

SMILES: Nc1ncnc2c1ncn2[C@@H]1O[C@H](COP(=O)(O)OP(=O)(O)OP(=O)(O)OC[C@H]2O[C@@H](n3cnc4c(N)nc(C#CCCCNC(=O)c5ccc6c(c5)C(=O)OC65c6ccc(O)cc6Oc6cc(O)ccc65)nc43)[C@H](O)[C@@H]2O)[C@@H](O)[C@H]1O [F-Ap3A]
- Kd (PGK1): 37.4 ± 1.62 µM
- Kd (LDHA): 35.3 ± 0.69 µM

SMILES: Nc1ncnc2c1ncn2[C@@H]1O[C@H](COP(=O)(O)OP(=O)(O)OP(=O)(O)OC[C@H]2O[C@@H](n3cnc4c(N)ncnc43)[C@H](O)[C@@H]2O)[C@@H](O)[C@H]1O [Ap3A, diadenosine triphosphate]
- HPLC assay: Ap3A hydrolysed by purified DcpS and slows m7Gp3G cleavage [1]: demonstrating that both Ap3A and Ap4A can be cleaved by DcpS

SMILES: C[n+]1cn([C@@H]2O[C@H](COP(=O)(O)OP(=O)([O-])OP(=O)(O)OC[C@H]3O[C@@H](n4cnc5c(=O)[nH]c(N)nc54)[C@H](O)[C@@H]3O)[C@@H](O)[C@H]2O)c2nc(N)[nH]c(=O)c21 [m^7Gp3G]
- HPLC cleavage assay with purified DcpS [2]: HPLC profiles for the hydrolysis of m^7Gp3G (peak c) catalyzed by DcpS

SMILES: Nc1ncnc2c1ncn2[C@@H]1O[C@H](COP(=O)(O)OP(=O)(O)OP(=O)(O)OP(=O)(O)OC[C@H]2O[C@@H](n3cnc4c(N)ncnc43)[C@H](O)[C@@H]2O)[C@@H](O)[C@H]1O [Ap4A, diadenosine tetraphosphate]
- HPLC assay: Ap4A hydrolysed by purified DcpS and slows m7Gp3G cleavage [3]: demonstrating that both Ap3A and Ap4A can be cleaved by DcpS
